Source: publication PMC12316308, “Interactions of substrates and phosphinyl containing inhibitors with bacterial and human zinc proteases” (PLOS One, 2025)
Values joined by “and” are separate entries in the source; they are usually repeats but may differ in a detail not shown here. Identical values can stand only once. Like-named read-outs stand apart in the source and are kept apart here.

Experiments:
Type in all cases: biochemical
[1] = target: T1, aureolysin (ALN) (Staphylococcus aureus, UniProt P81177); test: Enzyme inhibition kinetics, fluorogenic substrate ES005; details: for vi/v0 (relative enzyme activity with inhibitor), single determinations: Aureolysin (ALN), inhibitor 100 μM; for remaining activity at 100 µM: 100 µM inhibitor, no preincubation
T1 construct: purchased BioCentrum Ltd (Kraków, Poland)

[2] = target: T2, thermolysin (TLN) (Bacillus thermoproteolyticus, UniProt P00800); test: as above; details: for remaining activity at 10 µM: log [H2] (M) -5; for remaining activity at 0.1 µM: log [H2] (M) -7; for remaining activity at 0.01 µM: log [H2] (M) -8; for remaining activity at 0.0001 µM: log [H2] (M) -10; for vi/v0 avg (time dependent inhibition, Supplementary Figure S8): Thermolysin, inhibitor 10 µM
T2 construct: purchased Calbiochem (San Diego, CA, USA)
How it was run: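 Initial rates were read at 37 °C (ex 320/em 405 nm) with 4.0 µM substrate, ES001 for MMP-14 (1.0 nM) and ES005 for PLN (0.5 nM), TLN (0.21 nM), ALN (1.4 nM), in pH 7.5 Hepes, 10 mM CaCl2, 0.005% Brij-35, 1.0% DMSO. Enzymes were preincubated 30 min at room temperature or not; IC50 fitted, Ki from IC50 using Km.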

[3] = target: T3, pseudolysin (PLN, LasB) (Pseudomonas aeruginosa, UniProt P14756); test: as above; details: for remaining activity at 100 µM: 100 µM inhibitor
T3 construct: purchased Calbiochem (San Diego, CA, USA)

[4] = target: T4, human MT1-MMP/MMP-14 (catalytic domain) (Homo sapiens, UniProt P50281); test: Enzyme inhibition kinetics, fluorogenic substrate ES001; details: for remaining activity at 10 µM: 10 µM inhibitor
T4 construct: human MT1-MMP/MMP-14 (catalytic domain); purchased Calbiochem (San Diego, CA, USA)

[5] = TLN, log [H2] (M) -4, replicates
[6] = TLN, replicates, read-out: vi/v0 before correction of kurve
[7] = TLN, replicates, read-out: vi/v0 corrected (v0 is the average of log -10 to log -7)

T1 sequence (P81177 209-509): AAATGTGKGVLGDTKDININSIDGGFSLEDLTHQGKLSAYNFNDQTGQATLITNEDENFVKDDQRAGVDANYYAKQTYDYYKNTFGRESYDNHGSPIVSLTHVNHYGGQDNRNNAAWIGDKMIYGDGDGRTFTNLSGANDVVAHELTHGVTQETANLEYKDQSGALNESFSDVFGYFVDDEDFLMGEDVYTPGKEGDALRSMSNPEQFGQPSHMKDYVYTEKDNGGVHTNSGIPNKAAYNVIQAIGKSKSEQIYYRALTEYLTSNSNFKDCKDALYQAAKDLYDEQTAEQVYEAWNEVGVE
T2 sequence (P00800 233-548): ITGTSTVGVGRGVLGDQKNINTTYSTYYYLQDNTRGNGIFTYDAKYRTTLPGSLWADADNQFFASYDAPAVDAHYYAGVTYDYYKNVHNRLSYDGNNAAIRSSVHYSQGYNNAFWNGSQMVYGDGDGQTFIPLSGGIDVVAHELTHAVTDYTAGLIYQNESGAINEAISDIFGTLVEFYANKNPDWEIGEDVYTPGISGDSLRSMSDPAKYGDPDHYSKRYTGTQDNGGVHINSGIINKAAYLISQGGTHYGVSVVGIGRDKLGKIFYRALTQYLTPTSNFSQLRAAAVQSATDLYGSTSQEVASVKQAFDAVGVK
T3 sequence (P14756 198-498): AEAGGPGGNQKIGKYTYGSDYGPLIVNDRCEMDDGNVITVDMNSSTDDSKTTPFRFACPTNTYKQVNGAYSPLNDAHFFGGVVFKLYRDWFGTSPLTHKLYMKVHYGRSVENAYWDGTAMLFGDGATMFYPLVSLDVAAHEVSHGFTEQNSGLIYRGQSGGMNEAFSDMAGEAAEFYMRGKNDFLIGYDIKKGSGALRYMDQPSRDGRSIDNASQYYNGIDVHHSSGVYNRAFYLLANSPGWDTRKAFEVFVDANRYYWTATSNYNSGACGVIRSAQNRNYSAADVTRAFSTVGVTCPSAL

Compound: NC(=O)C(Cc1c[nH]c2ccccc12)NC(=O)C(CCCc1ccccc1)CP(=O)(O)C(Cc1ccccc1)NC(=O)OCc1ccccc1 (stereo not drawn) [H-2]
- vi/v0 (relative enzyme activity with inhibitor), single determinations ([1]; preincubation 15 min): 0.4549 and 0.4344 and 0.3957 and 0.4144
- vi/v0 (relative enzyme activity with inhibitor), single determinations ([1]; preincubation 30 min): 0.3912 and 0.406 and 0.3859
- remaining activity at 100 µM ([1]; read-out: vi/v0 (single replicate), Aureolysin): 42.4%
- remaining activity at 100 µM ([1]; read-out: vi/v0 avg, Aureolysin): 41.1%
- inhibitory effect on enzymatic activity ([2]; TLN, 100 μM compound, in words): strong inhibition
- vi/v0 before correction of kurve [2, 5]: 0
- vi/v0 corrected (v0 is the average of log -10 to log -7) [2, 5]: 0
- remaining activity at 100 µM ([2]; TLN, log [H2] (M) -4, replicates, read-out: vi/v0 before correction of kurve): 0%
- remaining activity at 100 µM ([2]; TLN, log [H2] (M) -4, replicates, read-out: vi/v0 corrected (v0 is the average of log -10 to log -7)): 0%
- remaining activity at 10 µM [2, 6]: 28.2%
- remaining activity at 10 µM [2, 7]: 28.1%
- remaining activity at 0.1 µM [2, 6]: 99.7%
- remaining activity at 0.1 µM [2, 7]: 99.5%
- remaining activity at 0.01 µM [2, 6]: 102%
- remaining activity at 0.01 µM [2, 7]: 102%
- remaining activity at 0.0001 µM [2, 6]: 95%
- remaining activity at 0.0001 µM [2, 7]: 94.8%
- vi/v0 Av (bar diagram figure 7) ([2]; Thermolysin (TLN), inhibitor 10 μM, average over 0, 15, 30 min preincubation): 0.2888
- vi/v0 (relative enzyme activity with inhibitor), single determinations ([2]; Thermolysin (TLN), inhibitor 10 μM, preincubation 0 min): 0.2407 and 0.2992 and 0.3158 and 0.3218
- vi/v0 avg (time dependent inhibition, Supplementary Figure S8) ([2]; 15 min pre incubation): 0.1753
- vi/v0 avg (time dependent inhibition, Supplementary Figure S8) ([2]; 30 min pre incubation): 0.294
- vi/v0 avg (time dependent inhibition, Supplementary Figure S8) ([2]; No preincubation): 0.2944
- Ki ([2]; read-out: Ki ± s.d.): 2.5 µM
- Ki [3]: 40 µM
- remaining activity at 100 µM ([3]; 0.25 h, read-out: vi/v0 (single replicate), Pseudolysin, 15 min pre incubation): 29.3%
- remaining activity at 100 µM ([3]; 0.25 h, read-out: vi/v0 avg, Pseudolysin, 15 min pre incubation): 29.7%
- remaining activity at 100 µM ([3]; 0.5 h, read-out: vi/v0 avg, Pseudolysin, 30 min pre incubation): 28.3%
- inhibitory effect on enzymatic activity ([3]; PLN, 100 μM compound, in words): strong inhibition
- vi/v0 Av (bar diagram figure 7) ([3]; Pseudolysin (PLN), inhibitor 100 μM, average over 0, 15, 30 min preincubation): 0.3295
- vi/v0 (relative enzyme activity with inhibitor), single determinations ([3]; Pseudolysin (PLN), inhibitor 100 μM, preincubation 0 min): 0.3705 and 0.2811 and 0.5391
- vi/v0 (relative enzyme activity with inhibitor), single determinations ([3]; Pseudolysin (PLN), inhibitor 100 μM, preincubation 15 min): 0.293 and 0.3019
- remaining activity at 100 µM ([3]; read-out: vi/v0 avg, Pseudolysin, no preincubation): 39.7%
- remaining activity at 10 µM ([4]; 0.25 h, MMP-14, 15 min pre incubation, read-out: vi/v0 (single replicate)): 16.5%
- remaining activity at 10 µM ([4]; 0.25 h, MMP-14, 15 min pre incubation, read-out: vi/v0 avg): 16%
- remaining activity at 10 µM ([4]; 0.5 h, MMP-14, 30 min pre incubation, read-out: vi/v0 (single replicate)): 14.6%
- remaining activity at 10 µM ([4]; 0.5 h, MMP-14, 30 min pre incubation, read-out: vi/v0 avg): 14.7%
- remaining activity at 10 µM ([4]; MMP-14, no preincubation, read-out: vi/v0 (single replicate)): 14.5%
- remaining activity at 10 µM ([4]; MMP-14, no preincubation, read-out: vi/v0 avg): 17.8%
- inhibitory effect on enzymatic activity ([4]; MMP-14, 100 μM compound, in words): strong inhibition
- vi/v0 Av (bar diagram figure 7) ([4]; MMP-14, inhibitor 10 μM, average over 0, 15, 30 min preincubation): 0.1603
- vi/v0 (relative enzyme activity with inhibitor), single determinations ([4]; MMP-14, inhibitor 10 μM, preincubation 0 min): 0.1454 and 0.1797 and 0.2098
- Ki ([4]; read-out: Ki ± s.d. (converted)): 3 µM
